Laboratory results from ChEMBL document CHEMBL1201862, “PubChem BioAssay data set” (2004).
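Where inhibition never reached the appropriate level, the endpoint shown equals the highest concentration tested. Otherwise, values were interpolated linearly from a five-concentration, 48-hour dose response in 96-well plates. GI50 marks 50% less growth.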 Calls of active or inactive are those of the source. Rule as the data show it: active = GI50 up to about 1.1 µM and inactive = higher.

What was measured:
Assay in all cases: inhibition of tumour cell growth, NCI panel, 48 h
SF-539 = test system: SF-539
HT-29 = test system: HT-29
RXF 393 = test system: RXF 393
SN12C = test system: SN12C
KM12 = test system: KM12
NCI-H522 = test system: NCI-H522
HL-60 = test system: HL-60
A498 = test system: A498
EKVX = test system: EKVX
UO-31 = test system: UO-31
SK-MEL-28 = test system: SK-MEL-28
ACHN = test system: ACHN
HCT-15 = test system: HCT-15
SF-268 = test system: SF-268
HCC 2998 = test system: HCC 2998
UACC-257 = test system: UACC-257
786-0 = test system: 786-0
SW-620 = test system: SW-620
MDA-MB-231 = test system: MDA-MB-231

Row | SMILES | GI50 (SF-539) | GI50 (HT-29) | GI50 (RXF 393) | GI50 (SN12C) | GI50 (KM12) | GI50 (NCI-H522) | GI50 (HL-60) | GI50 (A498) | GI50 (EKVX) | GI50 (UO-31) | GI50 (SK-MEL-28) | GI50 (ACHN) | GI50 (HCT-15) [µM] | GI50 (SF-268) | GI50 (HCC 2998) | GI50 (UACC-257) | GI50 (786-0) | GI50 (SW-620) | GI50 (MDA-MB-231)
1 | O=C(CC(C(=O)c1ccsc1)c1ccccc1)c1ccccc1 (stereo not given) | > 100 µM (inactive) | > 100 µM (inactive) | > 100 µM (inactive) | > 100 µM (inactive) | 49.9 µM (inactive) | 34.8 µM (inactive) | 0.484 µM (active) | 25.8 µM (inactive) | > 100 µM (inactive) | > 100 µM (inactive) | 7.28 µM (inactive) | > 100 µM (inactive) | 83.9 | > 100 µM (inactive) | > 100 µM (inactive) | > 100 µM (inactive) | > 100 µM (inactive) | > 100 µM (inactive) | 
2 | C[n+]1c(/C=C/c2ccc(/C=N/NC(=O)c3ccc(C(=O)N/N=C/c4ccc(/C=C/c5cn6ccccc6[n+]5C)cc4)cc3)cc2)cn2ccccc21 | > 100 µM (inactive) | > 100 µM (inactive) |  | > 100 µM (inactive) | > 100 µM (inactive) |  | 23.4 µM (inactive) |  | > 100 µM (inactive) | > 100 µM (inactive) | > 100 µM (inactive) | > 100 µM (inactive) | > 100 | > 100 µM (inactive) | > 100 µM (inactive) | > 100 µM (inactive) | 16.6 µM (inactive) | > 100 µM (inactive) | > 100 µM (inactive)
3 | Oc1ccc(-c2nc3ccc(F)cc3s2)cc1 | 17.8 µM (inactive) | 15 µM (inactive) | 25.3 µM (inactive) | 18.4 µM (inactive) | 15.7 µM (inactive) | 13.2 µM (inactive) | 22.4 µM (inactive) |  | 10.8 µM (inactive) | 15.2 µM (inactive) |  | 19.1 µM (inactive) | 18 | 23.2 µM (inactive) |  | 17.1 µM (inactive) | 18.5 µM (inactive) | 29.9 µM (inactive) | 20.8 µM (inactive)
4 | O=C(/C=C/c1ccccc1)CCc1c(O)c2ccccc2oc1=O | > 100 µM (inactive) | > 100 µM (inactive) |  | > 100 µM (inactive) | 40.8 µM (inactive) | 74.3 µM (inactive) | > 10 µM (inactive) | 74.5 µM (inactive) | 83 µM (inactive) | 63.2 µM (inactive) | > 100 µM (inactive) | > 100 µM (inactive) | 76.7 | > 100 µM (inactive) | > 100 µM (inactive) | > 100 µM (inactive) | > 100 µM (inactive) | 53.8 µM (inactive) | 44 µM (inactive)
5 | O=C(CN1CCN(Cc2ccccc2)CC1)N1CCCn2c1nc1ccccc1c2=O | > 100 µM (inactive) | > 100 µM (inactive) |  | > 100 µM (inactive) | > 100 µM (inactive) | > 100 µM (inactive) | > 100 µM (inactive) | > 100 µM (inactive) | > 100 µM (inactive) | > 100 µM (inactive) |  | > 100 µM (inactive) | > 100 | > 100 µM (inactive) | > 100 µM (inactive) | > 100 µM (inactive) | > 100 µM (inactive) | > 100 µM (inactive) | > 100 µM (inactive)
6 | COc1cc(NCC2COc3c(ccc(OC)c3OC)C2=O)c([N+](=O)[O-])cc1OC (stereo not given) | > 100 µM (inactive) | > 100 µM (inactive) |  | 70.1 µM (inactive) | > 100 µM (inactive) | 55.7 µM (inactive) | 36.8 µM (inactive) | > 100 µM (inactive) | 95.1 µM (inactive) | > 100 µM (inactive) | > 100 µM (inactive) | > 100 µM (inactive) | > 100 | 67.3 µM (inactive) |  | > 100 µM (inactive) | 15.6 µM (inactive) | > 100 µM (inactive) | 79.1 µM (inactive)
7 | Cc1c(C)c(S(=O)(=O)N(CCCCN)OCCCN)c(C)c2c1OC(C)(C)CC2 | 24 µM (inactive) | 17.6 µM (inactive) |  | 29.6 µM (inactive) | 17.1 µM (inactive) | 13.1 µM (inactive) | 1 µM (active) | 16 µM (inactive) | 16 µM (inactive) | 19.4 µM (inactive) | 19.6 µM (inactive) | 20.8 µM (inactive) | 21.5 | 15.4 µM (inactive) | 6.08 µM (inactive) | 22.2 µM (inactive) | 13.7 µM (inactive) | 31.8 µM (inactive) | 21.7 µM (inactive)
8 | O=C(CC(=O)Nc1cccc(C(=O)O)c1)Nc1cccc(C(=O)O)c1 | > 100 µM (inactive) | > 100 µM (inactive) |  | > 100 µM (inactive) | > 100 µM (inactive) | > 100 µM (inactive) | > 100 µM (inactive) | > 100 µM (inactive) | > 100 µM (inactive) | > 100 µM (inactive) | > 100 µM (inactive) | > 100 µM (inactive) | > 100 | > 100 µM (inactive) | > 100 µM (inactive) | > 100 µM (inactive) | > 100 µM (inactive) | > 100 µM (inactive) | > 100 µM (inactive)
9 | OCC1NCC(O)C(O)C1O (stereo not given) | > 100 µM (inactive) | > 100 µM (inactive) | > 100 µM (inactive) | > 100 µM (inactive) | > 100 µM (inactive) | > 100 µM (inactive) | > 100 µM (inactive) | > 100 µM (inactive) | > 100 µM (inactive) | > 100 µM (inactive) | > 100 µM (inactive) | > 100 µM (inactive) | > 100 | > 100 µM (inactive) | > 100 µM (inactive) | > 100 µM (inactive) | > 100 µM (inactive) | > 100 µM (inactive) | 
10 | Cc1ccc(C2=C(c3ccccc3)C(Br)(c3ccccc3)C(c3ccccc3)=C2c2ccc(C)cc2)cc1 | > 100 µM (inactive) | > 100 µM (inactive) | > 100 µM (inactive) | > 100 µM (inactive) | > 100 µM (inactive) | > 100 µM (inactive) | > 100 µM (inactive) | > 100 µM (inactive) | > 100 µM (inactive) | > 100 µM (inactive) | > 100 µM (inactive) | > 100 µM (inactive) | > 100 | > 100 µM (inactive) |  | > 100 µM (inactive) | > 100 µM (inactive) | > 100 µM (inactive) | 
11 | CC(C)NC(=O)OCC[S+]([O-])c1c(Cl)c(Cl)nn1C (stereo not given) | > 100 µM (inactive) | 34 µM (inactive) |  | 70.1 µM (inactive) | > 100 µM (inactive) | 18.5 µM (inactive) | 47.5 µM (inactive) | > 100 µM (inactive) | > 100 µM (inactive) | > 100 µM (inactive) | 28.5 µM (inactive) | 46.1 µM (inactive) | 20 | > 100 µM (inactive) |  | > 10 µM (inactive) | 24.9 µM (inactive) | 36.2 µM (inactive) | 28.6 µM (inactive)
12 | Cc1nc(N)c(N2CCNCC2)c(O)n1 | > 100 µM (inactive) | > 100 µM (inactive) |  | > 100 µM (inactive) | > 100 µM (inactive) | > 100 µM (inactive) | > 100 µM (inactive) | > 100 µM (inactive) | > 100 µM (inactive) | > 100 µM (inactive) | > 100 µM (inactive) | > 100 µM (inactive) | > 100 | > 100 µM (inactive) | > 100 µM (inactive) | > 100 µM (inactive) | > 100 µM (inactive) | > 100 µM (inactive) | > 100 µM (inactive)
13 | Cc1ccsc1/C=N/Nc1ccc2ccccc2n1 |  | 12.5 µM (inactive) | 30.5 µM (inactive) | > 100 µM (inactive) | 32.1 µM (inactive) |  | 11.8 µM (inactive) | 7.76 µM (inactive) | 20.3 µM (inactive) | 26.7 µM (inactive) | 80.4 µM (inactive) | 15.1 µM (inactive) | 24.8 | 32.1 µM (inactive) | 24.1 µM (inactive) | 6.12 µM (inactive) | 30.8 µM (inactive) | 85.1 µM (inactive) | 
14 | CN(C)CCCNC(=O)c1cc(NC(=O)c2cc(NC(=O)CCCn3c4ccccc4c4ccccc43)cn2C)cn1C | 20.4 µM (inactive) | 2.59 µM (inactive) | 12.6 µM (inactive) | 14.3 µM (inactive) | 6.28 µM (inactive) | 14.2 µM (inactive) | 11.6 µM (inactive) | 19.3 µM (inactive) | 15.3 µM (inactive) | 25.6 µM (inactive) | 21.6 µM (inactive) | 27.2 µM (inactive) | 28.1 | 13.5 µM (inactive) | 5.52 µM (inactive) | 15.9 µM (inactive) | 13.5 µM (inactive) | 7.94 µM (inactive) | 
15 | O=C1CC2C(=O)c3ccccc3CC2c2ccccc21 (stereo not given) | 32.7 µM (inactive) | 44.9 µM (inactive) |  | 55.3 µM (inactive) | 40.6 µM (inactive) | 57.4 µM (inactive) | 17.9 µM (inactive) | 48.8 µM (inactive) | 46.1 µM (inactive) | 12 µM (inactive) | 70.6 µM (inactive) | 30.7 µM (inactive) | 24.3 | 56.8 µM (inactive) |  | 24.8 µM (inactive) | 92.3 µM (inactive) | 49 µM (inactive) | > 100 µM (inactive)
16 | CC(=O)C(=NNc1ccc(-n2c(C)nc3ccccc3c2=O)cc1)C(C)=O | > 100 µM (inactive) | > 100 µM (inactive) |  | > 100 µM (inactive) | 55 µM (inactive) |  | > 100 µM (inactive) | > 100 µM (inactive) | > 100 µM (inactive) | > 100 µM (inactive) | > 100 µM (inactive) | > 100 µM (inactive) | > 100 | > 100 µM (inactive) |  | > 100 µM (inactive) | > 100 µM (inactive) | > 100 µM (inactive) | > 100 µM (inactive)
